# Source: patent US20230167479A1, “RESEARCH INTO ANTIMICROBIAL RESISTANCE BY THE FIELD FLOW FRACTIONATION TECHNIQUE” (UNIVERSITÉ DE LIMOGES, priority 2020, published 2023)
# What was measured:
# Type in all cases: cell-based
# [1] = system: E. coli strain ATCC 25922; assay: SdFFF elution-profile sensitivity test, protocol of Example 1 / FIG. 1; details: significance threshold 10%
# Experimental: The results of the antimicrobial resistance analysis are expected starting 40 hours after the sample was cultured on agar.
# (§1) The field-flow fractionation device is set according to patent EP1679124. The device comprises an injection system where the sample is taken, the tubing bringing the sample from the injector to the separation channel via a first rotary joint, the separation channel contained in a centrifugation bowl, the rotation of which is ensured by an electric motor itself controlled manually or via a suitable computer device, thus allowing control of the intensity of the multigravitational field, the tubing bringing the separated species from the channel to the detector via the second rotary joint, and finally the detector.
# (§2) Bacterial colonies were incubated in a Mueller-Hinton (MH) culture medium with an inoculum of 0.5 McFarland in the absence or in the presence of antibiotic, for 2 hours at 37° C. and under stirring. The liquid medium MH is the reference medium used for the reference method for determining MIC values, called the dilution method in a liquid medium.
# (§3) After incubation for 2 h, the culture medium was centrifuged and then taken up in a volume of 0.5 ml of PBS.
# Example 1: Results of resistance tests of the E. coli strain ATCC 25922 to various molecules, using SdFFF according to the present invention. […]
# [2] = system: E. coli ATCC EC 25922; assay: minimum inhibitory concentration; details: Escherichia coli, ATCCEC25922; concentration said to correspond to the MIC
# [3] = system: E. coli strain ATCC 35218; assay: SdFFF elution-profile sensitivity test, protocol of Example 2 / FIG. 4; details: for percentage of variation in the retention factor PΔR: resistant strain, 4 mg/ml ampicillin vs control, significance threshold 10%
# Experimental: (§4) The results of the antimicrobial resistance analysis are expected starting 18-26 hours after the sample was cultured on agar.
# as §1, §2, §3
# (§5) According to the handlings shown in FIG. 5, the calculation of the percentage of variation in the retention factor or PΔR is carried out as follows: ?
# (§6) Example 2: A new analysis protocol was established according to FIG. 4, consistent with the clinical implementation of conventional antibiograms, making it possible to reduce to 26 hours post-sampling/isolating the time for obtaining the test results.
# (§7) Thus, such assays were carried out directly on bacterial suspensions, obtained from colonies of the E. coli strain ATCC 25922 and ATCC 35218 cultured for 16-24 hours on agar medium, and incubated for 2 hours in the presence or in the absence of antibiotic (Ampicillin, FIGS. 5A/B).
# [4] = system: E. coli strain ATCC 25922; assay: as above; details: for percentage of variation in the retention factor PΔR: sensitive strain, 4 mg/ml ampicillin vs control, significance threshold 10%
# Experimental: as §4, §1, §2, §3, §5, §6, §7
# [5] = 4 mg/ml ampicillin, PΔR compared with 10% threshold
SMILES,PΔR ([1]; 0.03 µg/ml chlortetracycline vs control) [%],MIC [2] [µg/mL],"sensitivity/resistance of the strain to the antimicrobial [3, 5]",PΔR ([3]; resistant strain incubated with 8 mg/ml ampicillin),percentage of variation in the retention factor PΔR [3] [%],percentage of variation in the retention factor PΔR ([3]; listed as Ampicillin),"sensitivity/resistance of the strain to the antimicrobial [4, 5]",percentage of variation in the retention factor PΔR [4] [%],percentage of variation in the retention factor PΔR ([4]; listed as Ampicillin),percentage of variation in the retention factor PΔR ([1]; 3 µg/ml of kanamycin vs control) [%]
"CN(C)[C@@H]1C(O)=C(C(N)=O)C(=O)[C@@]2(O)C(O)=C3C(=O)c4c(O)ccc(Cl)c4[C@@](C)(O)[C@H]3C[C@@H]12 [chlortetracycline, Chlortetracycline]",22,0.03,–,–,–,–,–,–,–,–
"CC1(C)S[C@@H]2[C@H](NC(=O)[C@H](N)c3ccccc3)C(=O)N2[C@H]1C(=O)O [ampicillin, Ampicillin]",–,–,resistant,≈ 7%,4.50,≈ 5%,sensitive,12.70,≈ 13%,–
NC[C@H]1O[C@H](O[C@H]2[C@H](O)[C@@H](O[C@H]3O[C@H](CO)[C@@H](O)[C@H](N)[C@H]3O)[C@H](N)C[C@@H]2N)[C@H](O)[C@@H](O)[C@@H]1O [kanamycin],–,3,–,–,–,–,–,–,–,11.2
